Test results published in patent publication US8552176B2 (priority 2010, dated 2013).

How the values were obtained:
Test in all cases: cells
Assay type in all cases: cell-based, human
[1] = tested on: NCI-H460; conditions: read-out: GI50 NCI-H460 lung
[2] = tested on: Hep3b; conditions: read-out: GI50 Hep3b liver
[3] = tested on: SF-268; conditions: read-out: GI50 SF-268 CNS
[4] = tested on: H1299; conditions: read-out: GI50 H1299 lung (−p53)
[5] = tested on: DU-145; conditions: read-out: GI50 DU-145 prostate
[6] = tested on: HCT-15; conditions: read-out: GI50 HCT-15 colorectal
[7] = tested on: SKOV3; conditions: read-out: GI50 SKOV3 ovary
[8] = tested on: MCF7; conditions: read-out: GI50 MCF7 breast
[9] = tested on: HT29; conditions: read-out: GI50 HT29 colorectal
[10] = tested on: A549; conditions: read-out: GI50 A549 lung (+p53)

SMILES | GI50 [1] [nM] | GI50 [2] [nM] | GI50 [3] [nM] | GI50 [4] [nM] | GI50 [5] [nM] | GI50 [6] [nM] | GI50 [7] [nM] | GI50 [8] [nM] | GI50 [9] [nM] | GI50 [10] [nM]
CON(CCCCc1ccc(N(CCCl)CCCl)cc1)C1OCC(O)C(O)C1O (stereo not drawn) [Compound 62] | 4500 ± 400 | 1500 ± 100 | 1400 ± 100 | 830 ± 40 | 2300 ± 100 | 900 ± 50 | 2200 ± 100 | 910 ± 90 | 1600 ± 100 | 2300 ± 100
CON(CCCCc1ccc(N(CCCl)CCCl)cc1)C1O[C@H](CO)[C@@H](O[C@@H]2O[C@H](CO)[C@H](O)[C@H](O)[C@H]2O)[C@H](O)[C@@H]1O (stereo partly drawn) [Compound 46] | 57700 ± 500 | 38000 ± 2000 | 19100 ± 700 | 24000 ± 1000 | 43000 ± 3000 | 31000 ± 1000 | 35000 ± 1000 | 26000 ± 2000 | 34000 ± 3000 | 56000 ± 1000
C[C@H]1O[C@@H](NNC(=O)CCCc2ccc(N(CCCl)CCCl)cc2)[C@H](O)[C@@H](O)[C@H]1O [Compound 72, 4-(4-N′,N′-bis(2-chloroethyl)amino)phenylbutylhydrazido-β-D-fucoside] | 51000 ± 2000 | 11000 ± 300 | 5800 ± 100 | 8700 ± 300 | 24000 ± 2000 | > 100000 | 22000 ± 1000 | 6300 ± 200 | 16700 ± 700 | 28000 ± 1000
O[C@@H]1[C@H](O)COC(N(O)CCCCc2ccc(N(CCCl)CCCl)cc2)[C@@H]1O (stereo partly drawn) [Compound 68, N-Hydroxy-4-(4-N′,N′-bis(2-chloroethyl)amino)phenylbutylamino-D-riboside] | 1040 ± 60 | > 5000 | 1500 ± 100 | 1600 ± 200 | > 5000 | 870 ± 50 | 890 ± 40 | 3200 ± 200 | 900 ± 50 | 840 ± 50
CC(=O)OC1COC(N(CCCCc2ccc(N(CCCl)CCCl)cc2)OC(C)=O)C(OC(C)=O)C1OC(C)=O (mixture of isomers) [Compound 69, N-Acetoxy-4-(4-N′,N′-bis(2-chloroethyl)amino)phenylbutylamino-D-riboside peracetate] | 1300 ± 100 | > 5000 | 1600 ± 100 | 1050 ± 50 | > 5000 | 1100 ± 100 | 530 ± 10 | 4600 ± 300 | 960 ± 70 | 1120 ± 70
CON(CCCCc1ccc(N(CCCl)CCCl)cc1)C1OC(CCl)C(O)C(O)C1O (stereo not drawn) [Compound 36] | 5800 ± 600 | 3200 ± 200 | 2100 ± 100 | 1300 ± 100 | 3700 ± 100 | 1200 ± 100 | 2100 ± 100 | 4900 ± 100 | 2100 ± 100 | 3000 ± 100
CON(CCCCc1ccc(N(CCCl)CCCl)cc1)C1OCC(O)C(O)C1O (mixture of isomers) [Compound 42] | 5800 ± 100 | 3000 ± 100 | 1200 ± 100 | 880 ± 40 | 3900 ± 100 | 950 ± 80 | 1800 ± 100 | 940 ± 200 | 2400 ± 100 | 2200 ± 100
CON(CCCCc1ccc(N(CCCl)CCCl)cc1)C1OCC(O)C1O (stereo not drawn) [Compound 61] | 1900 ± 500 | 1400 ± 100 | 1300 ± 100 | 720 ± 30 | 2100 ± 100 | 820 ± 50 | 2100 ± 100 | 870 ± 90 | 1200 ± 100 | 2000 ± 200
CON(CCCCc1ccc(N(CCCl)CCCl)cc1)C1OC(CO)C(O)C(O)C1O (stereo not drawn) [Compound 28] | 12300 ± 700 | 3400 ± 100 | 1800 ± 100 | 1400 ± 100 | 5500 ± 200 | 2800 ± 200 | 3000 ± 100 | 1500 ± 100 | 2900 ± 400 | 4500 ± 200
CON(CCCCc1ccc(N(CCCl)CCCl)cc1)C1OC(C(=O)O)C(O)C(O)C1O (stereo not drawn) [Compound 38] | 9100 ± 900 | 4900 ± 300 | 1600 ± 100 | 990 ± 30 | 3900 ± 100 | 1030 ± 50 | 3100 ± 100 | 6000 ± 100 | 3200 ± 300 | 5500 ± 300
CON(CCCCc1ccc(N(CCCl)CCCl)cc1)C1CC(O)C(O)C(CO)O1 (mixture of isomers) [Compound 25] | 6600 ± 400 | 3300 ± 100 | 2200 ± 100 | 1500 ± 100 | 5000 ± 700 | 1600 ± 100 | 2400 ± 100 | 1040 ± 80 | 3500 ± 700 | 3200 ± 200
CON(CCCCc1ccc(N(CCCl)CCCl)cc1)C1OC(C)C(O)C(O)C1O (mixture of isomers) [Compound 20] | 5900 ± 300 | 2600 ± 200 | 1700 ± 100 | 3500 ± 200 | 4100 ± 900 | 820 ± 70 | 1700 ± 100 | 3000 ± 200 | 6700 ± 300 | 9600 ± 400
